{"source": "patent US20220330549A1", "about": "“USE OF N-BENZYLBENZAMIDE-BASED COMPOUND AS HERBICIDE” (Northwest A&F University, priority 2020, published 2022)", "format_in_all_cases": "in vivo", "key": {"[1]": {"test_system": "Piemarker", "experiment": "Herbicidal activity test for indoor pre-emergence soil treatment", "set-up": "key: level 1-9; higher = more weed remaining vs blank control", "conditions": "150 g a.i./ha, visual inspection 21 days after treatment", "in_short": "(§1)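 Compounds were formulated as 10% emulsifiable concentrates and sprayed onto the soil 24 h after sowing, at 150 g(a.i.)/ha. Soil was sandy loam (≤2% organic matter), with seeds under 0.5–2.0 cm cover, per NY/T 1155.3-2006. Visual 1–9 ratings relative to blank control were made after 21 days.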"}, "[2]": {"test_system": "green bristlegrass", "experiment": "Herbicidal activity test for indoor pre-emergence soil treatment", "set-up": "key: level 1-9; higher = more weed remaining vs blank control", "conditions": "150 g a.i./ha, visual inspection 21 days after treatment", "in_short": "as §1"}, "[3]": {"test_system": "Barnyard grass", "experiment": "Herbicidal activity test for indoor pre-emergence soil treatment", "set-up": "key: level 1-9; higher = more weed remaining vs blank control", "conditions": "150 g a.i./ha, visual inspection 21 days after treatment", "in_short": "as §1"}, "[4]": {"test_system": "Digitaria sanguinalis", "experiment": "Herbicidal activity test for indoor pre-emergence soil treatment", "set-up": "key: 1-9 levels; higher = more weed remaining vs blank control", "conditions": "150 g a.i./ha, visual inspection 21 days after treatment", "in_short": "as §1"}, "[5]": {"test_system": "Amaranthus retroflexus", "experiment": "Herbicidal activity test for indoor pre-emergence soil treatment", "set-up": "key: 1-9 levels; higher = more weed remaining vs blank control", "conditions": "150 g a.i./ha, visual inspection 21 days after treatment", "in_short": "as §1"}, "[6]": {"test_system": "Acalypha australis", "experiment": "Field test for weed control in a corn field", "conditions": "150 g a.i./ha, after treatment", "in_short": "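Post-emergence field trial in a corn field following GB/T 17980.42-2000. Test compounds were formulated as 10% emulsifiable concentrates, diluted in water, and sprayed at 150 g(a.i.)/ha when corn had 2 to 5 leaves, with 4 replicates on 20 m^2 plots. Mesotrione 25% oil dispersion served as the control agent. Weed control was scored on a 1-9 scale.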"}, "[7]": {"test_system": "goosegrass", "experiment": "Field test for weed control in a corn field", "conditions": "150 g a.i./ha, after treatment", "in_short": "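Weed control efficacy against goosegrass was tested in a corn field following GB/T 17980.42-2000. Compounds formulated as 10% emulsifiable concentrates were diluted in water and sprayed post-emergence at 150 g(a.i.)/ha when corn had 2 to 5 leaves, with 4 replicates of 20 m^2 plots. Herbicidal activity was rated on a 1-9 scale by damage symptoms and severity.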"}, "[8]": {"test_system": "Solanum nigrum", "experiment": "Field test for weed control in a corn field", "conditions": "150 g a.i./ha, 30 days after treatment", "in_short": "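Post-emergence weed control was tested in a corn field following GB/T 17980.42-2000. Compounds were made into 10% emulsifiable concentrates, diluted in water and sprayed at 150 g(a.i.)/ha when corn had 2 to 5 leaves after sowing, in 20 m^2 plots with 4 replicates. Effects on Solanum nigrum were graded on a 1-9 scale relative to the blank control area.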"}, "[9]": {"test_system": "Chenopodium album", "experiment": "Field test for weed control in a corn field", "conditions": "150 g a.i./ha, after treatment", "in_short": "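A corn-field efficacy trial following GB/T 17980.42-2000 tested post-emergence control of Chenopodium album. Test compounds formulated as 10% emulsifiable concentrates were diluted in water and sprayed at 150 g(a.i.)/ha when the corn had 2 leaves to 5 leaves, on 20 m^2 plots with 4 replicates. Herbicidal activity was rated on a 1-9 scale by damage symptoms and severity.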"}, "[10]": {"test_system": "Digitaria sanguinalis", "experiment": "Field test for weed control in a corn field", "conditions": "150 g a.i./ha, after treatment", "in_short": "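Field trial in a corn field following GB/T 17980.42-2000. Test compounds were formulated as 10% emulsifiable concentrates, diluted in water and sprayed post-emergence at 150 g(a.i.)/ha when corn had 2 to 5 leaves, with 4 replicates on 20 m^2 plots. Control of Digitaria sanguinalis was scored on a 1-9 scale based on weed damage relative to the untreated blank area.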"}, "[11]": {"test_system": "Portulaca oleracea", "experiment": "Field test for weed control in a corn field", "conditions": "150 g a.i./ha, after treatment", "in_short": "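Field efficacy trial in corn following GB/T 17980.42-2000. Test compounds were prepared as 10% emulsifiable concentrates, diluted in water, and sprayed at 150 g(a.i.)/ha when corn had 2 to 5 leaves after sowing. Plots were 20 m^2 with 4 replicates per treatment. Herbicidal activity was scored on a 1-9 scale from weed damage symptoms and severity.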"}, "[12]": {"test_system": "green bristlegrass", "experiment": "Field test for weed control in a corn field", "conditions": "150 g a.i./ha, after treatment", "in_short": "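Post-emergence weed control was tested in a corn field following GB/T 17980.42-2000. When the corn had 2 leaves to 5 leaves after sowing, 10% emulsifiable concentrates diluted in water were sprayed at 150 g(a.i.)/ha on 20 m^2 plots, four replicates per treatment. Effects on green bristlegrass were scored on a 1-9 damage scale relative to the blank control area.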"}, "[13]": {"test_system": "Amaranthus retroflexus", "experiment": "Field test for weed control in a corn field", "conditions": "150 g a.i./ha, 30 days after treatment", "in_short": "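Field efficacy trial in a corn field following GB/T 17980.42-2000. Test compounds were formulated as 10% emulsifiable concentrates, diluted in water and sprayed post-emergence when corn had 2 to 5 leaves. Each treatment covered 20 m^2 with 4 replicates. A 25% mesotrione oil dispersion served as control. Damage to Amaranthus retroflexus was rated on a 1-9 scale against untreated blank plots.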"}, "[14]": {"test_system": "nutgrass flatsedge", "experiment": "Field test for weed control in a corn field", "conditions": "150 g a.i./ha, after treatment", "in_short": "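A corn field efficacy trial following GB/T 17980.42-2000 assessed post-emergence control of nutgrass flatsedge. Test compounds were formulated as 10% emulsifiable concentrates, diluted in water, and sprayed at 150 g(a.i.)/ha when the corn had 2 to 5 leaves. Each treatment had 4 replicates on 20 m^2 plots. Herbicidal activity was graded on a 1-9 scale by damage symptoms and severity.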"}, "[15]": {"test_system": "Convolvulus arvensis", "experiment": "Field test for weed control in a corn field", "conditions": "150 g a.i./ha, after treatment", "in_short": "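Field trial of weed control against Convolvulus arvensis in corn, run following GB/T 17980.42-2000. Test agents were formulated as 10% emulsifiable concentrates and sprayed in water at 150 g(a.i.)/ha when corn plants had 2 to 5 leaves. Each treatment was replicated 4 times on 20 m^2 plots, and 25% mesotrione oil dispersion served as the control agent.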"}, "[16]": {"test_system": "Barnyard grass", "experiment": "Field test for weed control in a corn field", "conditions": "150 g a.i./ha, 30 days after treatment", "in_short": "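Corn-field efficacy trial following GB/T 17980.42-2000. Test compounds were formulated as 10% emulsifiable concentrates, diluted in water and sprayed post-emergence at 150 g(a.i.)/ha when corn had 2 to 5 leaves. Each treatment was replicated 4 times on 20 m^2 plots. Barnyard grass control was rated on a 1-9 damage scale.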"}, "[17]": {"test_system": "Humulus scandens", "experiment": "Herbicidal activity test for indoor pre-emergence soil treatment", "conditions": "150 g a.i./ha, visual inspection 21 days after treatment", "in_short": "as §1"}, "[18]": {"test_system": "Gramineae", "experiment": "Post-emergence herbicidal activity test in a paddy field", "set-up": "key: level scale; higher level = more weed left vs blank control", "conditions": "150 g a.i./ha (penoxsulam control 250 g(a.i.)/h)", "in_short": "(§2)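 Efficacy was visually estimated 15 and 30 days after spraying, grading weed coverage relative to an untreated neighbouring plot (level 2 = 0 to 2.5%, level 9 = 67.6 to 100%). Treatments were 150 g(a.i.)/ha from 10% emulsifiable concentrates applied at the 4-5 leaf rice stage, four repeats of 50 m^2 each.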"}, "[19]": {"test_system": "Cyperaceae", "experiment": "Post-emergence herbicidal activity test in a paddy field", "set-up": "key: level scale; higher level = more weed left vs blank control", "conditions": "150 g a.i./ha (penoxsulam control 250 g(a.i.)/h)", "in_short": "as §2"}, "[20]": {"test_system": "Broadleaf weed", "experiment": "Post-emergence herbicidal activity test in a paddy field", "set-up": "key: level scale; higher level = more weed left vs blank control", "conditions": "150 g a.i./ha (penoxsulam control 250 g(a.i.)/h)", "in_short": "as §2"}, "[21]": {"test_system": "Digitaria sanguinalis", "experiment": "Herbicidal activity test for indoor post-emergence spraying on stems and leaves", "set-up": "key: grade level by weed remaining vs blank control, e.g. 5 = 10.1-15%", "conditions": "150 g a.i./ha, visual inspection 21 days after treatment", "in_short": "(§3)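 Visual inspection at 21 days after treatment gave a level rating, each level defined as a percentage band of the weed remaining in the blank control area. Plants were sprayed on stems and leaves after emergence, following NY/T 1155.4-2006.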"}, "[22]": {"test_system": "Piemarker", "experiment": "Herbicidal activity test for indoor post-emergence spraying on stems and leaves", "set-up": "key: grade level by weed remaining vs blank control, e.g. 5 = 10.1-15%", "conditions": "150 g a.i./ha, visual inspection 21 days after treatment", "in_short": "as §3"}, "[23]": {"test_system": "green bristlegrass", "experiment": "Herbicidal activity test for indoor post-emergence spraying on stems and leaves", "set-up": "key: grade level by weed remaining vs blank control, e.g. 5 = 10.1-15%", "conditions": "150 g a.i./ha, visual inspection 21 days after treatment", "in_short": "as §3"}, "[24]": {"test_system": "Amaranthus retroflexus", "experiment": "Herbicidal activity test for indoor post-emergence spraying on stems and leaves", "set-up": "key: grade level by weed remaining vs blank control, e.g. 5 = 10.1-15%", "conditions": "150 g a.i./ha, visual inspection 21 days after treatment", "in_short": "as §3"}, "[25]": {"test_system": "Humulus scandens", "experiment": "Herbicidal activity test for indoor post-emergence spraying on stems and leaves", "set-up": "key: grade level by weed remaining vs blank control, e.g. 5 = 10.1-15%", "conditions": "150 g a.i./ha, visual inspection 21 days after treatment", "in_short": "as §3"}, "[26]": {"test_system": "Barnyard grass", "experiment": "Herbicidal activity test for indoor post-emergence spraying on stems and leaves", "set-up": "key: grade level by weed remaining vs blank control, e.g. 5 = 10.1-15%", "conditions": "150 g a.i./ha, visual inspection 21 days after treatment", "in_short": "as §3"}}, "data": [{"compound": "Cc1cccc(C(=O)NCc2cc(F)cc(Cl)c2)c1", "note": "[Compound B07]", "values": [{"measurement": "Herbicidal Activity Piemarker", "setting": "[1]", "result": 1}, {"measurement": "Herbicidal Activity Green bristlegrass", "setting": "[2]", "result": 1}, {"measurement": "Herbicidal Activity Barnyard grass", "setting": "[3]", "result": 1}, {"measurement": "Herbicidal Activity Digitaria sanguinalis", "setting": "[4]", "result": 1}, {"measurement": "Herbicidal Activity Amaranthus retroflexus", "setting": "[5]", "result": "2 (equivalent to 0 to 2.5% of the weed in the blank control area)"}, {"measurement": "Post-emergence weed control effect, Acalypha australis", "setting": "[6]", "result": "2 (equivalent to 0 to 2.5% of the weed in the blank control area)"}, {"measurement": "Post-emergence weed control effect, Goose grass", "setting": "[7]", "result": "2 (equivalent to 0 to 2.5% of the weed in the blank control area)"}, {"measurement": "Post-emergence weed control effect, Solanum nigrum", "setting": "[8]", "result": "2 (equivalent to 0 to 2.5% of the weed in the blank control area)"}, {"measurement": "Post-emergence weed control effect, Chenopodium album", "setting": "[9]", "result": 1}, {"measurement": "Post-emergence weed control effect, Digitaria sanguinalis", "setting": "[10]", "result": "2 (equivalent to 0 to 2.5% of the weed in the blank control area)"}, {"measurement": "Post-emergence weed control effect, Portulaca oleracea", "setting": "[11]", "result": 1}, {"measurement": "Post-emergence weed control effect, Green bristlegrass", "setting": "[12]", "result": "2 (equivalent to 0 to 2.5% of the weed in the blank control area)"}, {"measurement": "Post-emergence weed control effect, Amaranthus retroflexus", "setting": "[13]", "result": 1}, {"measurement": "Post-emergence weed control effect, Nutgrass flatsedge", "setting": "[14]", "result": "2 (equivalent to 0 to 2.5% of the weed in the blank control area)"}, {"measurement": "Post-emergence weed control effect, Convolvulus arvensis", "setting": "[15]", "result": 1}, {"measurement": "Post-emergence weed control effect, Barnyard grass", "setting": "[16]", "result": 1}, {"measurement": "Herbicidal Activity Humulus scandens", "setting": "[17]", "result": "3 (equivalent to 2.6 to 5% of the weed in the blank control area)"}, {"measurement": "Herbicidal activity 15 days after treatment Gramineae", "setting": "[18]; 15 days after treatment", "result": "2 (equivalent to 0 to 2.5% of the weed in the blank control area)"}, {"measurement": "Herbicidal activity 30 days after treatment Gramineae", "setting": "[18]; 30 days after treatment", "result": "2 (equivalent to 0 to 2.5% of the weed in the blank control area)"}, {"measurement": "Herbicidal activity 15 days after treatment Cyperaceae", "setting": "[19]; 15 days after treatment", "result": 1}, {"measurement": "Herbicidal activity 30 days after treatment Cyperaceae", "setting": "[19]; 30 days after treatment", "result": 1}, {"measurement": "Herbicidal activity 15 days after treatment Broadleaf weed", "setting": "[20]; 15 days after treatment", "result": 1}, {"measurement": "Herbicidal activity 30 days after treatment Broadleaf weed", "setting": "[20]; 30 days after treatment", "result": 1}, {"measurement": "Herbicidal Activity Digitaria sanguinalis", "setting": "[21]", "result": 1}, {"measurement": "Herbicidal Activity Piemarker", "setting": "[22]", "result": 1}, {"measurement": "Herbicidal Activity Green bristlegrass", "setting": "[23]", "result": 1}, {"measurement": "Herbicidal Activity Amaranthus retroflexus", "setting": "[24]", "result": 1}, {"measurement": "Herbicidal Activity Humulus scandens", "setting": "[25]", "result": 1}, {"measurement": "Herbicidal Activity Barnyard grass", "setting": "[26]", "result": 1}]}]}
